Experimental data: patent EP2878677A1, “Activators of protein phosphatase 5” (Deutsches Zentrum für Neurodegenerative Erkrankungen e.V. …, priority 2013, dated 2015)

Experiments:
Hsp90/DAF-21 = target: T1, Hsp90/DAF-21 (Caenorhabditis elegans, UniProt Q18688); test: coupled regenerative ATPase assay; format: biochemical, C. elegans; conditions: concentrations well above the KD; also with AHA-1; 30 °C
T1 construct: made in house
Description: (§1) ATPase activity can be measured as described in Gaiser et al., 2009 with an ATPase assay that is carried out as a regenerative assay, wherein ADP produced during the ATPase reaction is recycled to ATP with the help of lactate dehydrogenase, NADH, phosphoenolpyruvate and pyruvate kinase. This changes the absorbance at 340 nm, when NADH is oxidized to NAD^+, giving a sensitive signal for the determination of activity. The change in absorbance at 340 nm that occurs during oxidizing of NADH to NAD^+ is measured by spectroscopic measures. Preferably, said in vitro ATPase assay is carried out at 30 °C. Preferably, said in vitro ATPase assay is carried out in the presence of 3 µM or the chaperone protein. Preferably the concentration of each of the cochaperones present is 5 µM. Preferably, the chaperones and cochaperones used are bacterially expressed proteins.
(§2) The activity of the ATPases Hsc70/HSP-1 and Hsp90/DAF-21 were assessed in a coupled regenerative ATPase assay as described before (Gaiser et al., 2009). Reactions were measured in a Varian Cary 100 spectrophotometer (Agilent Technologies, Boeblingen, Germany) at 30 °C and the depletion of NADH was followed at 340 nm. Chaperone concentration was 3 µM and cochaperones were added, when indicated, at a concentration of 5 µM.

Hsc70/HSP-1 = target: T2, Hsc70/HSP-1 (Caenorhabditis elegans, UniProt P09446); test: coupled regenerative ATPase assay; format: biochemical, C. elegans; conditions: concentrations well above the KD; also with BAG-1 and DNJ-13; 30 °C
T2 construct: made in house; host or cells: bacteria
Description: as §1, §2

PP5 = target: T3, PP5 (Rattus norvegicus, UniProt P53042); test: pNPP-based phosphatase assay with full-length mammalian PP5; format: biochemical
T3 construct: The full-length PP5 and its deletion variants were purified and the activity was determined; made in house; host or cells: E. coli BL21-CodonPlus (DE3)-RIL
T3 sequence (P53042 1-499): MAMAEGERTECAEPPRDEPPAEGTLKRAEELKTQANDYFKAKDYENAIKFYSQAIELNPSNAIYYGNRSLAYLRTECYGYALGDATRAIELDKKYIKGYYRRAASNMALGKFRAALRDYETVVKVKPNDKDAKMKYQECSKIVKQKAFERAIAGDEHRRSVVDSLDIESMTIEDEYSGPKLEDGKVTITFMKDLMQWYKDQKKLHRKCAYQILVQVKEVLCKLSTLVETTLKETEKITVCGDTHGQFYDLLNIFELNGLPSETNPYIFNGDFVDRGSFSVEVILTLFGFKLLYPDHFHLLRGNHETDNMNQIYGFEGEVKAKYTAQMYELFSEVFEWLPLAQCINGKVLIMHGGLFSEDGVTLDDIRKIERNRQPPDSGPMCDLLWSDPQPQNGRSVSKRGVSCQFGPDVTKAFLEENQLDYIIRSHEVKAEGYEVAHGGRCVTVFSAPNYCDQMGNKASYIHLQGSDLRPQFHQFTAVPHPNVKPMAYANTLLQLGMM
Description: Cloning and purification of PPH-5, Hsp90/DAF-21, CDC-37, YFP-Hsp90/DAF-21 were performed as described before (Gaiser et al., 2009; Gaiser et al., 2011; Gaiser et al., 2010). The purified human phosphatases PP1, PP2A and PP2B/PP3 were purified as described (Baumgrass et al., 2001; Mondragon et al., 1997; Tung et al., 1985). The expression clones of mammalian PP5, PP5-ΔN165 (166-499) and PP5-ΔC8 (1-491) were generated by PCR from plasmid-DNA containing full-length PP5 from Rattus norvegicus. PCR-products were inserted into the pET28b expression plasmid (Merck, Darmstadt, Germany) and verified by DNA sequencing (GATC Biotech, Konstanz, Germany). Proteins were expressed in BL21-CodonPlus (DE3)-RIL bacteria (Stratagene, LaJolla, USA). Bacterial cultures were grown to an OD600 of 0.8 and induced with 1 mM IPTG. Cells were disrupted using a cell disruption machine (IUL Instruments, Freiburg, Germany) and the lysate was loaded onto a HisTrap FF column (GE Healthcare, Freiburg, Germany). Protein was eluted in a buffer containing 400 mM imidazole. Eluted protein was dialyzed and applied to a ResourceQ anion exchange column (GE Healthcare, Freiburg, Germany). Finally, proteins were subjected to size exclusion chromatography on Superdex 200 PrepGrade gel filtration columns (GE Healthcare, Freiburg, Germany). Protein purity was assessed by SDS-PAGE and the molecular mass was determined by a MALDI-TOF/TOF mass spectrometer (Bruker, Bremen, Germany). Proteins were frozen in liquid nitrogen in 40 mM HEPES/KOH, pH 7.5, 20 mM KCl, 1 mM DTT and stored at -80 °C.
Phosphatase activity was followed by the conversion of para-nitrophenyl phosphate (pNPP) to para-nitophenole and absorption of the product at 410 nm (ε: 15100 cm^-1 M^-1) in a Varian Cary 100 spectrophotometer (Agilent Technologies, Boeblingen, Germany). The reaction was measured in 40 mM HEPES/KOH, 20 mM KCl, 5 mM MnCl2, 1 mM DTT, pH 7.5 and 60 mM pNPP at 20 °C if not indicated otherwise. Phosphatase concentration ranged from 50 to 500 nM in the assay. If indicated, Hsp90/DAF-21 peptide was supplemented in the assay at a concentration of 60 µM.
For characterization of the binding site of the P5SAs, deletion constructs of rat PP5 were generated. […] The full-length PP5 and its deletion variants were purified and the activity was determined in the absence and presence of 10 µM and 100 µM (45 µM in case of P5SA-5) of the substances, respectively (Figure 3A-C).

T2 sequence (P09446 whole entry): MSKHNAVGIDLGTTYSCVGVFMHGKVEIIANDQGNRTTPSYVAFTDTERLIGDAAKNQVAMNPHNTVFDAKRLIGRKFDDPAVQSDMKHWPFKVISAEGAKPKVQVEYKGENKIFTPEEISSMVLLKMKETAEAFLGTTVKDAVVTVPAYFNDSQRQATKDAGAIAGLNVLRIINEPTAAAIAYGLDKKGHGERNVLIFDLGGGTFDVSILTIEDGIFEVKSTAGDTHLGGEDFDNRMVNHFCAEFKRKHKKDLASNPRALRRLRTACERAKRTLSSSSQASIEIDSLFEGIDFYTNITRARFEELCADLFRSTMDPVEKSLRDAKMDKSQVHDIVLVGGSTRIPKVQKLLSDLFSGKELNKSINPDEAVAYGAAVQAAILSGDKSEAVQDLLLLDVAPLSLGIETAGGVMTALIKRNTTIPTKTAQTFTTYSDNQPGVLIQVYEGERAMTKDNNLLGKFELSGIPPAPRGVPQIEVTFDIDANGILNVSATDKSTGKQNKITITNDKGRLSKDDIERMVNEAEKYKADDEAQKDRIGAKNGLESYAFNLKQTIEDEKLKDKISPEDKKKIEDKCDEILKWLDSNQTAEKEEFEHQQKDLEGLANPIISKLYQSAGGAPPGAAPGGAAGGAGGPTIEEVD

Row | Compound | ATPase activity of Hsp90/DAF-21 (Hsp90/DAF-21) | ATPase activity of Hsc70/HSP-1 (Hsc70/HSP-1) | fold activation (PP5; at 143 µM) | fold activation (PP5; at 714 µM) | fold activation (PP5; at 45 µM) | Kd (PP5; rat PP5, read-out: binding constant (affinity towards the mammalian protein))
1 | FC(F)(F)c1c2c(nc3c(-c4ccc(Cl)cc4)cnn13)CCC2 [P5SA-1] | no effect | no additional effect | 2.7 fold | – | – | –
2 | COc1ccc(-c2nc(Cc3ccc(Cl)cc3)no2)cc1OC [P5SA-2] | no effect | no additional effect | – | 13.7 fold | – | –
3 | CN1CCc2c(sc(-n3cccc3)c2CNC(=O)NC23CC4CC(CC(C4)C2)C3)C1 [P5SA-3] | – | – | – | 7.0 fold | – | –
4 | O=c1cc2nc(-c3ccc(F)cc3)nc(SCc3ccc(Br)cc3)n2[nH]1 [P5SA-4] | no effect | no additional effect | 16.4 fold | – | – | –
5 | CNC(=O)c1c(NC(=O)COCC(=O)Nc2sc3c(c2C(=O)NC)CCC3)sc2c1CCC2 [P5SA-5] | no effect | no additional effect | – | – | 22.1 fold | 10 ± 5 µM
